In ChEMBL document CHEMBL4000195, “Design and synthesis of novel 7-aminosubstituted pyrido[2,3-b]pyrazines exhibiting anti-breast cancer activity” (Eur J Med Chem, 2017):
The source made the active and inactive calls. The calls are words filed in the database; no cut-off is given here.

Columns and labels:
[1] = biological target: Tyrosine-protein kinase HCK (Homo sapiens) (UniProt P08631); experiment: Inhibition of human wild type full length HCK (M22 to P526 residues) expressed in bacterial expression system at 10 uM by KinomeScan method relative to control
[2] = Cmax in NOD/SCID mouse at 10 mg/kg, ip administered as single dose by LC-MS/MS method; format: ADME, organism-based; design: dose 10 mg/kg, route intraperitoneal; details: in vivo
HCC1954 [3] = experiment: Anti-tumor activity against HER2-amplified human HCC1954 cells xenografted in NOD/SCID mouse assessed as proliferation index at 10 mg/kg, ip administered once daily for 18 days measured after 1 hr last dose by Ki-67/hematoxylin and eosin staining based microscopic analysis (reference value: 78.4 +/- 14.8%); format: functional
[4] = biological target: Dual specificity protein kinase CLK1 (Mus musculus) (UniProt P22518); experiment: Inhibition of mouse CLK1
[5] = biological target: Macrophage colony-stimulating factor 1 receptor (Homo sapiens) (UniProt P07333); experiment: Inhibition of human wild type partial length CSF1R (I564 to S939 residues) expressed in bacterial expression system at 10 uM by KinomeScan method relative to control
HCC1954 [6] = experiment: Cytotoxicity against human HCC1954 cells at 5 uM by MTT assay; format: functional
HCC1954 [7] = experiment: Cytotoxicity against human HCC1954 cells by MTT assay; format: functional, cell-based
MDA-MB-231 [8] = experiment: Cytotoxicity against human MDA-MB-231 cells at 5 uM by MTT assay; format: functional
[9] = biological target: Mitogen-activated protein kinase kinase kinase 4 (Homo sapiens) (UniProt Q9Y6R4); experiment: Inhibition of human wild type partial length MAP3K4 (G1319 to E1608 residues) expressed in bacterial expression system at 10 uM by KinomeScan method relative to control
[10] = biological target: T1, Phosphatidylinositol 4,5-bisphosphate 3-kinase catalytic subunit alpha isoform (Homo sapiens, UniProt P42336); experiment: Inhibition of PI3Kalpha catalytic domain (unknown origin) using PIP2 liposomes as substrate in presence of biotin-labeled PIP3 and GST-GRP1-PH by streptavidin-HRP based assays
[11] = biological target: Phosphatidylinositol 4,5-bisphosphate 3-kinase catalytic subunit alpha isoform (Homo sapiens, UniProt P42336, H1047R); experiment: Inhibition of PI3Kalpha H1047R mutant (unknown origin) using PIP2 liposomes as substrate in presence of biotin-labeled PIP3 and GST-GRP1-PH by streptavidin-HRP based assays
[12] = biological target: T1, Phosphatidylinositol 4,5-bisphosphate 3-kinase catalytic subunit alpha isoform; experiment: Inhibition of human wild type partial length PIK3CA (R108 to N1068 residues) expressed in mammalian expression system at 10 uM by KinomeScan method relative to control
HCC1954 [13] = experiment: Anti-tumor activity against HER2-amplified human HCC1954 cells xenografted in NOD/SCID mouse assessed as tumor weight at 10 mg/kg, ip administered once daily for 18 days measured after 1 hr last dose (reference value: 0.8 +/- 0.07 g); format: functional
MDA-MB-231 [14] = experiment: Cytotoxicity against human MDA-MB-231 cells at 10 uM by MTT assay; format: functional
MCF7 [15] = experiment: Cytotoxicity against human MCF7 cells at 10 uM by MTT assay; format: functional
MCF7 [16] = experiment: Cytotoxicity against human MCF7 cells by MTT assay; format: functional, cell-based
[17] = Tmax in NOD/SCID mouse at 10 mg/kg, ip administered twice by LC-MS/MS method; format: ADME, organism-based; details: in vivo
[18] = biological target: RAC-alpha serine/threonine-protein kinase (Homo sapiens) (UniProt P31749); experiment: Inhibition of human wild type partial length AKT1 expressed in bacterial expression system at 10 uM by KinomeScan method relative to control
[19] = Tmax in NOD/SCID mouse at 0.5 mg/kg, po administered as single dose by LC-MS/MS method; format: ADME, organism-based; details: in vivo
[20] = biological target: Glycogen synthase kinase-3 (Sus scrofa) (UniProt B2LUN4+I6LNT8); experiment: Inhibition of pig GSK3alpha/beta using GS-1 as substrate in presence of [gamma33P]ATP after 30 mins by scintillation counting method
[21] = AUC (0 to 8 hrs) in NOD/SCID mouse at 40 mg/kg, ip administered as single dose by LC-MS/MS method; format: ADME, organism-based; design: time < 8 hr, dose 40 mg/kg, route intraperitoneal; details: in vivo
[22] = AUC (0 to 8 hrs) in NOD/SCID mouse at 0.5 mg/kg, ip administered as single dose by LC-MS/MS method; format: ADME, organism-based; design: dose 0.5 mg/kg, time < 8 hr, route intraperitoneal; details: in vivo
[23] = biological target: Receptor-type tyrosine-protein kinase FLT3 (Homo sapiens) (UniProt P36888); experiment: Inhibition of recombinant human GST-tagged FLT3 (571 to 993 residues) transphosphorylation activity expressed in baculovirus infected Sf9 cells using poly[Glu:Tyr] (4:1) as substrate after 60 mins
[24] = biological target: Cyclin-dependent kinase 5/CDK5 activator 1 (Homo sapiens) (UniProt Q00535+Q15078); experiment: Inhibition of human CDK5/p25 using histone H1 as substrate in presence of [gamma33P]ATP after 30 mins by scintillation counting method; format: protein-complex assay
HCC1954 [25] = experiment: Anti-tumor activity against HER2-amplified human HCC1954 cells xenografted in NOD/SCID mouse assessed as tumor size at 10 mg/kg, ip administered once daily for 18 days measured after 1 hr last dose (reference value: 497 +/- 82 mm3); format: functional
[26] = biological target: Mitogen-activated protein kinase 3 (Homo sapiens) (UniProt P27361); experiment: Inhibition of human wild type full length ERK1 (M1 to P379 residues) expressed in bacterial expression system at 10 uM by KinomeScan method relative to control
[27] = biological target: Tyrosine-protein kinase Fyn (Homo sapiens) (UniProt P06241); experiment: Inhibition of human wild type partial length FYN (T243 to L534 residues) expressed in bacterial expression system at 10 uM by KinomeScan method relative to control
[28] = biological target: Mitogen-activated protein kinase 1 (Homo sapiens) (UniProt P28482); experiment: Inhibition of human wild type full length ERK2 (M1 to S360 residues) expressed in bacterial expression system at 10 uM by KinomeScan method relative to control
[29] = biological target: Mitogen-activated protein kinase kinase kinase 1 (Homo sapiens) (UniProt Q13233); experiment: Inhibition of human wild type partial length MAP3K1 (L1202 to W1512 residues) expressed in mammalian expression system at 10 uM by KinomeScan method relative to control
[30] = biological target: Mast/stem cell growth factor receptor Kit (Homo sapiens) (UniProt P10721); experiment: Inhibition of recombinant human GST-tagged KIT (544-end residues) transphosphorylation activity expressed in baculovirus infected Sf9 cells using poly[Glu:Tyr] (4:1) as substrate after 60 mins
[31] = biological target: Receptor-interacting serine/threonine-protein kinase 3 (Homo sapiens) (UniProt Q9Y572); experiment: Inhibition of human RIPK3
[32] = biological target: Muscle, skeletal receptor tyrosine-protein kinase (Homo sapiens) (UniProt O15146); experiment: Inhibition of human wild type partial length MUSK (M553 to V869 residues) expressed in bacterial expression system at 10 uM by KinomeScan method relative to control

T1 sequence (P42336 whole entry, the tested form may be a part, canonical isoform): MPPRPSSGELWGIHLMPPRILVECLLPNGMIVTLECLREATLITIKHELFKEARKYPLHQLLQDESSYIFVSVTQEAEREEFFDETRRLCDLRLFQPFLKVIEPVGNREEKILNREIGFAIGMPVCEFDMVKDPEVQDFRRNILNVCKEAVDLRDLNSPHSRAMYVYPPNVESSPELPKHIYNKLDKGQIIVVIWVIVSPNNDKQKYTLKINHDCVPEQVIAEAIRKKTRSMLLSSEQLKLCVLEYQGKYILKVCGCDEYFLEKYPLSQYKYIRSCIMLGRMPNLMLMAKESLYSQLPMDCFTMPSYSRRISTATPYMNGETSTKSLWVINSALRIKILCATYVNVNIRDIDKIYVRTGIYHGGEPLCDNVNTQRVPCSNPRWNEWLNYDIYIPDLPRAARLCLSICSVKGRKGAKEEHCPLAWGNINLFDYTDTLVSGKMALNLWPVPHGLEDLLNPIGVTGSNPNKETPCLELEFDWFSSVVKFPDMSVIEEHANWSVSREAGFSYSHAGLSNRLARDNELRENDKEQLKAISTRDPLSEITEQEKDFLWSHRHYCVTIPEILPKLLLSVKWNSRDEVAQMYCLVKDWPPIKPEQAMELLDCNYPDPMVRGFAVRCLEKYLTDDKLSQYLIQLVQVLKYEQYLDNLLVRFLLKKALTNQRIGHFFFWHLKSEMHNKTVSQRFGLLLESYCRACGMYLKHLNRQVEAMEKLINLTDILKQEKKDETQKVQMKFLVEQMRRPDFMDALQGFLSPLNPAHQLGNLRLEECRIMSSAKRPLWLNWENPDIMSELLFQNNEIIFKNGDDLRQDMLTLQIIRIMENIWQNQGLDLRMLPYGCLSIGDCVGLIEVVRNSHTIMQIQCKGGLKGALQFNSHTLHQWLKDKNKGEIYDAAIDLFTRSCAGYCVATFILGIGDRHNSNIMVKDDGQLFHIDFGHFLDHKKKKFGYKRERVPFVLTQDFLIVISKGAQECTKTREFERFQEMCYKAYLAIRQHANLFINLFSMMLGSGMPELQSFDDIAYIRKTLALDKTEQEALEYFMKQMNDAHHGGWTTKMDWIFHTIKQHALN
Sequence of Cyclin-dependent kinase 5/CDK5 activator 1 (Homo sapiens) (Q00535 whole entry): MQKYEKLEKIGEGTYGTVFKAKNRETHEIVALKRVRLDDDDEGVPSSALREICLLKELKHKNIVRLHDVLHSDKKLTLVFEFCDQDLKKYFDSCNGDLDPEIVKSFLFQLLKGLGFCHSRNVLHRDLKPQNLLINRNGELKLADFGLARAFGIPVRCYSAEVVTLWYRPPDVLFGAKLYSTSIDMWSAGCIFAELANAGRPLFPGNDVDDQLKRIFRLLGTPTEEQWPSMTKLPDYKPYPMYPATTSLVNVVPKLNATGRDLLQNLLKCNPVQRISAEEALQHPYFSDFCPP
Sequence of Cyclin-dependent kinase 5/CDK5 activator 1 (Homo sapiens) (Q15078 99-307 partner limits assumed): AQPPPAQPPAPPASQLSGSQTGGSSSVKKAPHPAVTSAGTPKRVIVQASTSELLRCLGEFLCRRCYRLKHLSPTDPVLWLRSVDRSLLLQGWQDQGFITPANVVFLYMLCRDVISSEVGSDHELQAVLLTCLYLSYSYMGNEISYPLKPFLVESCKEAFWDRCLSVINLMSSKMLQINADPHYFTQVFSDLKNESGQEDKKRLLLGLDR
Sequence of Dual specificity protein kinase CLK1 (Mus musculus) (P22518 whole entry, looked up, the tested form may be a part): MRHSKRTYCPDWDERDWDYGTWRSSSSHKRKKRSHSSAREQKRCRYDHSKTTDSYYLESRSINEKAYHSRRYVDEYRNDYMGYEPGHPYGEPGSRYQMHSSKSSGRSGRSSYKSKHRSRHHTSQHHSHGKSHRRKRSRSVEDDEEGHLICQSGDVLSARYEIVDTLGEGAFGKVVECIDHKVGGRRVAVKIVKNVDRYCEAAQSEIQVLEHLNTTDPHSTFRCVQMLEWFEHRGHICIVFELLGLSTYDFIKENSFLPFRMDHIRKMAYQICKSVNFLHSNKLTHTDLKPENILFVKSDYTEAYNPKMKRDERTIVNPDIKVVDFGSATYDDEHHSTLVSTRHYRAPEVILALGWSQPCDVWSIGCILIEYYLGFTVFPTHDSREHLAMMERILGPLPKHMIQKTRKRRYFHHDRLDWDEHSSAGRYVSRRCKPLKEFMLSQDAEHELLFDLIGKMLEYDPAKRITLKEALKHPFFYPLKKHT
Sequence of Receptor-type tyrosine-protein kinase FLT3 (Homo sapiens) (P36888 whole entry, the tested form may be a part): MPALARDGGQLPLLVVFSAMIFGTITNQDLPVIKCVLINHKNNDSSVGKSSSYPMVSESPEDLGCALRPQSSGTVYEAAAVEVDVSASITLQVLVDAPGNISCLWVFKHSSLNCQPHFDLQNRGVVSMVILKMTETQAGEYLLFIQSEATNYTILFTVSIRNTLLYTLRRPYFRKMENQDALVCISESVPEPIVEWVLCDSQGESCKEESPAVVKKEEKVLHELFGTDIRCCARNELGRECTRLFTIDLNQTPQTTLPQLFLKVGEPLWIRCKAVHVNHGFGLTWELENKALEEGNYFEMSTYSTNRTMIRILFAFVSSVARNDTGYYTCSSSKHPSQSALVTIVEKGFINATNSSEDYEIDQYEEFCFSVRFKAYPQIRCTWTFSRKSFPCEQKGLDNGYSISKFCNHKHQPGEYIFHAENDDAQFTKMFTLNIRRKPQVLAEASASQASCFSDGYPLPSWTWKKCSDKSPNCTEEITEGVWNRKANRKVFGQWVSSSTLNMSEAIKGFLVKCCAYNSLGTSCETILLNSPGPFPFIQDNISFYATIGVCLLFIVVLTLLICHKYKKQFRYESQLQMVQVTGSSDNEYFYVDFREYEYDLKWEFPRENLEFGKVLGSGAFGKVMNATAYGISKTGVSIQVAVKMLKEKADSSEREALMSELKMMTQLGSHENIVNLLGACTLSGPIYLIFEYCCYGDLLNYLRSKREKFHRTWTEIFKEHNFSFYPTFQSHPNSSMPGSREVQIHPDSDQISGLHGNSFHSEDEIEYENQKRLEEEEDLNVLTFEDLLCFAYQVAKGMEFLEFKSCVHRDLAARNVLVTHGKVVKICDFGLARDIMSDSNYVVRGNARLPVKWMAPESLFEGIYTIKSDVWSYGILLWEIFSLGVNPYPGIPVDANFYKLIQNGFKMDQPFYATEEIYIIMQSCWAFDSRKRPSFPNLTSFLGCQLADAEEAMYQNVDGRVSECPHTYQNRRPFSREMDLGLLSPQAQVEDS
Sequence of Tyrosine-protein kinase HCK (Homo sapiens) (P08631 2-526 limits assumed): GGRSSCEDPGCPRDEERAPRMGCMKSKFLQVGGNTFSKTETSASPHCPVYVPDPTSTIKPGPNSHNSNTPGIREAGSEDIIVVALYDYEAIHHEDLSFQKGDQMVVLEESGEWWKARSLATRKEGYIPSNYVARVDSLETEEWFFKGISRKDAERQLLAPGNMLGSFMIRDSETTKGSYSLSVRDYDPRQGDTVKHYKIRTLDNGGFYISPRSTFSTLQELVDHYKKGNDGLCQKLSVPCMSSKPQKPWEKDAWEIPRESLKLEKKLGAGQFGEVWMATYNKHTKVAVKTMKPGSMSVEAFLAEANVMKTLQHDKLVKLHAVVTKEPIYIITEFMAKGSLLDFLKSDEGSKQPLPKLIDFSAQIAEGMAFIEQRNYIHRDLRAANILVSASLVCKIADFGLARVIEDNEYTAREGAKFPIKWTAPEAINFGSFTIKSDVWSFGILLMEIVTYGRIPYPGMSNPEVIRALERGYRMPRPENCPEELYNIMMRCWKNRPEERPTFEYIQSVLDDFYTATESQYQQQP
Sequence of Mitogen-activated protein kinase 3 (Homo sapiens) (P27361 whole entry, the tested form may be a part): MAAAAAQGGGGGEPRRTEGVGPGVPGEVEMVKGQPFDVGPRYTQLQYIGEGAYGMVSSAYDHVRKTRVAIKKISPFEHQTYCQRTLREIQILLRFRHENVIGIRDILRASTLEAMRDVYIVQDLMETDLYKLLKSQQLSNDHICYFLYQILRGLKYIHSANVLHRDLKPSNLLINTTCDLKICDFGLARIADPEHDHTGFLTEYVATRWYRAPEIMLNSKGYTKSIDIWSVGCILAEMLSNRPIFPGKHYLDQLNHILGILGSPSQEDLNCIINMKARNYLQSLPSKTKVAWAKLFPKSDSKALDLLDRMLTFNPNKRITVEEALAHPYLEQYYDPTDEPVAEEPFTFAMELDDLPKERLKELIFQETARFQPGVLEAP
Sequence of Mast/stem cell growth factor receptor Kit (Homo sapiens) (P10721 whole entry): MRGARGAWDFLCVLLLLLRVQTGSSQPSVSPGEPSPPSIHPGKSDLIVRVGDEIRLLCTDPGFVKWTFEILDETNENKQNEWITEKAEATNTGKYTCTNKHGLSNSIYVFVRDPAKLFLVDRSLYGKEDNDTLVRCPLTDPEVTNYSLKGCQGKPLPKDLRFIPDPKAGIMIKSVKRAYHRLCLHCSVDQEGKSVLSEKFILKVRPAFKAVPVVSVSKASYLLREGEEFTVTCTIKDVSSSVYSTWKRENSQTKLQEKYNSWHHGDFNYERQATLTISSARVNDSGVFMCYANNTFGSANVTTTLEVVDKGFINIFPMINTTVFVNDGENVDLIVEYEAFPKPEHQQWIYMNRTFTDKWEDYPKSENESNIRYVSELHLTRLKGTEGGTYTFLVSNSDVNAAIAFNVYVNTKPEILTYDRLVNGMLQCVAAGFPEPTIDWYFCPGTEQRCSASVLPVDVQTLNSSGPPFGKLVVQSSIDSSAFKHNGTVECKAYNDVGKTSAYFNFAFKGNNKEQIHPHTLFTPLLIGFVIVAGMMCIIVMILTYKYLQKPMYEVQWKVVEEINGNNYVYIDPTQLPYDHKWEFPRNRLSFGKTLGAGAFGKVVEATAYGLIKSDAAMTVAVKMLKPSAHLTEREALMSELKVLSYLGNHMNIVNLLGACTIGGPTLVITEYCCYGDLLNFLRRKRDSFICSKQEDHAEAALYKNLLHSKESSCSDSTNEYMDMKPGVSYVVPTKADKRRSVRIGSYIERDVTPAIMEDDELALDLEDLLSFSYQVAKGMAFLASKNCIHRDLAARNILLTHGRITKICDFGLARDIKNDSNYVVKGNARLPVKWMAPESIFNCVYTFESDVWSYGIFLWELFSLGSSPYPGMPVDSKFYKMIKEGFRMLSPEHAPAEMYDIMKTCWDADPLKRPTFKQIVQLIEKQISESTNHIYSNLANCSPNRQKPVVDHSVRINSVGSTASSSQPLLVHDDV

inhibition [1]: 13%
Cmax [2]: 4.3 to 4.32 µM
inhibition [4]: inactive
inhibition [5]: 0%
inhibition [9]: 16%
IC50 [10]: 26 µM
IC50 [11]: 22 µM
inhibition [12]: 0%
Tmax [17]: 2 h
inhibition [18]: 3%
Tmax [19]: 1 h
inhibition [20]: inactive
AUC(0-t) at 8 h [21]: 131 µM·h
AUC(0-t) at 8 h [22]: 2.85 µM·h
inhibition [23]: inactive
inhibition [24]: inactive
inhibition [26]: 11%
inhibition [27]: 6%
inhibition [28]: 0%
inhibition [29]: 0%
inhibition [30]: inactive
inhibition [31]: inactive
inhibition [32]: 0%
SMILES: Cc1nc2nc(Sc3ccccc3)cnc2cc1NC(=O)Nc1ccccc1
Activity_index (HCC1954 [3]): 25.7%
Activity (HCC1954 [6]): >50%
IC50 (HCC1954 [7]): 1.5 µM
Activity (MDA-MB-231 [8]): >50%
Activity (HCC1954 [13]): 0.2 g
Activity (MDA-MB-231 [14]): >50%
Activity (MCF7 [15]): >50%
IC50 (MCF7 [16]): 3.1 µM
Activity (HCC1954 [25]): 150 mm3
